# Experimental data from US5807850A, “Therapeutic agent for osteoporosis and triazepine compound” (Japan Tobacco, Inc., priority 1994, dated 1998).
# pIC50: −log10 of the molar value.
# System: calvaria
# Assay: Inhibition of bone resorption (45Ca release from calvaria stimulated with hPTH (1-34), method of Raisz)
# Type: cell-based, new born ICR mouse
# Details: 45Ca release, 50 nM hPTH (1-34), 3 days incubation; test concentrations 0.04, 0.2 and 1 μM; mean of 4 pairs; read-out: IC50 (inhibition of bone resorption)
# Text: The determination of the inhibitory action on the bone resorption was basically in accordance with the method of Raisz [J. Clin. Invest. vol.
# A new born ICR mouse (one or two days old) was intraperitoneally administered with 1.5μ Ci ^45 Ca (isotope of calcium as CaCl2 solution) and calvaria was aseptically removed the next day. The calvaria was split into two along the central suture line, and one of them was used as a control and the other was used as a test compound. The calvaria was preincubated at 37° C. for 2 days in BGJb medium [0.5 ml, Fitton-Jackson modification, GIBCO Laboratories, USA, containing bovine serum albumin 1 mg/ml] added with a test compound to the concentrations of 0.04 μM, 0.2 μM and 1 μM and then in the above-mentioned medium containing 50 nM hPTH (1-34) for further 3 days. After the incubation, the ^45 Ca radioactivity in the medium and the bone was determined, and the proportion (%) of ^45 Ca released from the bone into the medium was calculated by the following formula.
# Using the bone obtained from the same mouse and treated in the same manner without adding a test compound, as a control, the proportion (%) relative to the control group was determined according to the following formula.
row,pIC50,SMILES
1,6.92,"COc1ccc(CN2N=C(c3ccc(Cl)cc3)c3ccccc3-n3c(C)nnc32)cc1 [Example 77, 6-(4-Chlorophenyl)-4-(4-methoxybenzyl)-1-methyl-4H-2,3,4,5,10b-pentaazabenz[e]azulene]"

# Same assay, conditions: Mus musculus, 72 h, read-out: IC50 (inhibition of bone resorption)
row,SMILES,pIC50
1,"Cc1nnc2n1-c1ccccc1C(c1ccc(Cl)cc1)=NN2Cc1ccc(F)cc1 [Example 59, 6-(4-Chlorophenyl)-4-(4-fluorobenzyl)-1-methyl-4H-2,3,4,5,10b-pentaazabenz[e]azulene]",6.17

# Same assay, conditions: Mus musculus, 72 h; 45Ca release, 50 nM hPTH (1-34), 3 days incubation; test concentrations 0.04, 0.2 and 1 μM; mean of 4 pairs; read-out: IC50 (inhibition of bone resorption)
row,SMILES,pIC50
1,"COc1ccc(CN2N=C(c3ccc(Cl)cc3)c3ccccc3-n3c(C)nnc32)cc1OC [Example 41, 6-(4-Chlorophenyl)-4-(3,4-dimethoxybenzyl)-1-methyl-4H-2,3,4,5,10b-pentaazabenz[e]azulene]",6.10
2,"Cc1nnc2n1-c1ccccc1C(c1ccc(Cl)cc1)=NN2Cc1ccccc1F [Example 57, 6-(4-Chlorophenyl)-4-(2-fluorobenzyl)-1-methyl-4H-2,3,4,5,10b-pentaazabenz[e]azulene]",6.14
3,"Cc1nnc2n1-c1ccccc1C(c1ccc(Cl)cc1)=NN2Cc1cc(F)ccc1F [Example 61, 6-(4-Chlorophenyl)-4-(2,5-difluorobenzyl)-1-methyl-4H-2,3,4,5,10b-pentaazabenz[e]azulene]",6.09
4,"Cc1nnc2n1-c1ccccc1C(c1ccc(Cl)cc1)=NN2Cc1cc(F)cc(F)c1 [Example 62, 6-(4-Chlorophenyl)-4-(3,5-difluorobenzyl)-1-methyl-4H-2,3,4,5,10b-pentaazbenz[e]azulene]",6.15
5,"Cc1nnc2n1-c1ccccc1C(c1ccc(Cl)cc1)=NN2Cc1ccc(F)c(F)c1 [Example 63, 6-(4-Chlorophenyl)-4-(3,4-difluorobenzyl)-1-methyl-4H-2,3,4,5,10b-pentaazabenz[e]azulene]",6.13
6,"Cc1nnc2n1-c1ccccc1C(c1ccc(Cl)cc1)=NN2Cc1cccc(Cl)c1 [Example 70, 4-(3-Chlorobenzyl)-6-(4-chlorophenyl)-1-methyl-4H-2,3,4,5,10b-pentaazabenz[e]azulene]",6.19
7,"Cc1nnc2n1-c1ccccc1C(c1ccc(Cl)cc1)=NN2Cc1ccc(C#N)cc1 [Example 74, 6-(4-Chlorophenyl)-4-(4-cyanobenzyl)-1-methyl-4H-2,3,4,5,10b-pentaazabenz[e]azulene]",6.37
8,"COc1cccc(CN2N=C(c3ccc(Cl)cc3)c3ccccc3-n3c(C)nnc32)c1 [Example 76, 6-(4-Chlorophenyl)-4-(3-methoxybenzyl)-1-methyl-4H-2,3,4,5,10b-pentaazabenz[e]azulene]",6.25
9,"COc1cc(CN2N=C(c3ccc(Cl)cc3)c3ccccc3-n3c(C)nnc32)cc(OC)c1OC [Example 79, 6-(4-Chlorophenyl)-1-methyl-4-(3,4,5-trimethoxybenzyl)-4H-2,3,4,5,10b-pentaazabenz[e]azulene]",6.24

# Now from value to molecule:
row,pIC50,SMILES
1,6.92,"COc1ccc(CN2N=C(c3ccc(Cl)cc3)c3ccccc3-n3c(C)nnc32)cc1 [Example 40, 6-(4-Chlorophenyl)-4-(4-methoxybenzyl)-1-methyl-4H-2,3,4,5,10b-pentaazabenz[e]azulene]"
2,6.38,"COc1ccc(CN2N=C(c3ccc(C)cc3)c3ccccc3-n3c(C)nnc32)cc1 [Example 46, 4-(4-Methoxybenzyl)-1-methyl-6-(4-methylphenyl)-4H-2,3,4,5,10b-pentaazabenz[e]azulene]"
3,6.60,"Cc1nnc2n1-c1ccccc1C(c1ccc(Cl)cc1)=NN2Cc1cccc(C#N)c1 [Example 56, 6-(4-Chlorophenyl)-4-(3-cyanobenzyl)-1-methyl-4H-2,3,4,5,10b-pentaazabenz[e]azulene]"
4,6.37,"Cc1nnc2n1-c1ccccc1C(c1ccc(Cl)cc1)=NN2Cc1cccc(F)c1 [Example 58, 6-(4-Chlorophenyl)-4-(3-fluorobenzyl)-1-methyl-4H-2,3,4,5,10b-pentaazabenz[e]azulene]"
5,6.48,"Cc1nnc2n1-c1ccccc1C(c1ccc(Cl)cc1)=NN2Cc1cccc([N+](=O)[O-])c1 [Example 68, 6-(4-Chlorophenyl)-1-methyl-4-(3-nitrobenzyl)-4H-2,3,4,5,10b-pentaazabenz[e]azulene]"
